Laboratory results from patent US11091535B2, “Thrombin inhibitors for treatment of stroke and related coagulative disorders” (THE UNIVERSITY OF SYDNEY, priority 2016, dated 2021).

System: pooled citrated plasma
Assay: in vitro activated partial thromboplastin time (APTT) assay
Parameters: species or system mice
Settings: hirudin at concentrations above 2 μg/mL
Procedure: The anticoagulant activity of the thrombin inhibitors disclosed herein is determined by measuring their ability to prolong clotting of human plasma in vitro using a clinical TT assay. Briefly, human plasma from healthy donors (800 μL) is mixed with a concentration range of inhibitors, clotting initiated by addition of thrombin, and clotting time measured using a coagulometer. Compounds which prolong clotting time to 30 sec at a concentration of 50 nM may be further investigated in vitro/ex vivo for APTT. In brief, pooled citrated plasma from C57BL6/J mice is pre-incubated with various concentrations (0-12 μg/mL) of inhibitors. APTT of each plasma sample is quantified following addition of a coagulation activator and CaCl2). In an ex vivo assay, mice are injected i.v. with inhibitors (fixed concentration determined from in vitro APTT) and whole blood collected into sodium citrate (˜130 μL) 0, 5, 30 and 60 min post-administration. APTT is quantified on isolated plasma using a RANDOX APTT kit, with fibrin generation monitored to measure clotting time.
We investigated the ability of the inhibitor of Example 2 (A^Aa) to prolong clotting time in an in vitro activated partial thromboplastin time (APTT) assay (FIG. 1A).

hirudin
increase in clotting time (APTT): 8 fold
